Common to all, as to type: cell-based
The test system of experiment [1] is estrogen receptor negative breast (BT20) cell line. Put plainly: Growth of human tumor cells in culture, BT20 (Trypan blue exclusion). The following applies: 96 h continuous treatment, viable cells by Trypan blue exclusion. As to the method: (§1) The effect of compounds according to Formula I on the growth of human tumor cells in culture was evaluated using androgen receptor negative prostate (DU145), colo-rectal (DLD-1), non-small cell lung carcinoma (H157), estrogen receptor negative breast (BT20) and chronic myeloid leukemia (K562) cell lines. All cell cultures were maintained at 37° C. in a humidified atmosphere of 5% CO2.
(§2) Cells were treated with compounds according to Formula I at five different concentrations (1-100 μM range) for each compound. The dose response of each cell line was established by determining the number of viable cells after 96 h of continuous treatment against each of the different test concentrations of each compound. The determination of viable cells was done by the by the Trypan blue exclusion method. Activity for each compound at each concentration is reported as a percentage of cells that remain viable.

For experiment [2], the system named is non-small cell lung carcinoma (H157) cell line. Put plainly: Growth of human tumor cells in culture, H157 (Trypan blue exclusion). The conditions noted are these: viable cells by Trypan blue exclusion. The protocol: as §1, §2
Experiment [3] deals with androgen receptor negative prostate (DU145) cell line. Put plainly: Growth of human tumor cells in culture, DU145 (Trypan blue exclusion). The conditions noted are these: 96 h continuous treatment, viable cells by Trypan blue exclusion. The protocol: as §1, §2
In experiment [4] the test system is colo-rectal (DLD-1) cell line. Put plainly: Growth of human tumor cells in culture, DLD-1 (Trypan blue exclusion). The conditions noted are these: DLD-1 cells, 96 h continuous treatment, viable cells by Trypan blue exclusion. As to the method: as §1, §2
In experiment [5] the test system is chronic myeloid leukemia (K562) cell line. Put plainly: Growth of human tumor cells in culture, K562 (Trypan blue exclusion). The following applies: 96 h continuous treatment, viable cells by Trypan blue exclusion. As to the method:
as §1, §2

The next experiment concerns the target T1, JNK1 (Homo sapiens, UniProt P45983).
T1 construct: JNK1 in 100 μg of cell lysate was immunoprecipitated; endogenous in cells; host or cells: BT-20 cells
The experiment is described as follows: Activation of Jun kinase: JNK1 immunoprecipitated from treated BT-20 cells, phosphorylation of GST-c-Jun. The conditions noted are these: 50 and 100 μM in DMSO, 12 hours at 37° C., compared to DMSO controls. The protocol:
The compounds of Examples 1, 2, 7, 8 and 9 from Table 3 were analyzed for activation of the Jun kinase signaling pathway. The selected compounds were added to BT-20 cells at concentrations of 50 and 100 μM in dimethyl sulfoxide (DMSO) and incubated for 12 hours at 37° C. The cells were harvested and lysed after 12 hours of treatment. The cell lysates were then analyzed for c-Jun kinase activity by immunoprecipitating JNK1 and assessing the ability of these immunoprecipitates to phosphorylate GST-linked c-Jun. Lysis of the cells was performed after incubation with […], using the lysis buffer [25 mM N-2-hydroxyethylpiperazine-N′-2-ethanesulfonic acid (HEPES) (pH 7.6), 0.1% Triton, 300 mM NaCl, 20 mM β-glycerophosphate, 1.5 mM MgCl2, 0.2 mM ethylenediaminetetraacetic acid (EDTA), 0.5 mM dithiothreitol (DTT), 0.2 mM Na3VO4, 100 μM phenylmethylsulfonyl fluoride (PMSF), 1 mM benzamidine, 2 μg/mL leupeptin and 4 μg/mL aprotinin]. Protein concentrations were measured using Bio-Rad protein assay reagent. JNK1 in 100 μg of cell lysate was immunoprecipitated by incubating […] of lysate protein with […] of the JNK1 polyclonal antibody (Santa Cruz Biotechnology, Inc.,) for 1 h followed by an additional incubation with […] of protein A-Sepharose (Pharmacia) for 1 h. The immune complex bound protein A-Sepharose beads were washed twice with the lysis buffer and twice with JNK buffer (20 mM HEPES, pH 7.6, 20 mM β-glycerophosphate, 10 mM MgCl2 and […] Na3VO4. The kinase reaction was carried out by resuspending the complex bound protein A-Sepharose beads in […] of JNK buffer containing […] [γ-^32P]ATP (5000 CPM/pmol) and incubating them for 20 min at 30° C. using 5 mg GST-c-Jun as substrate. The reaction was terminated by the addition of Laemmli's buffer. The samples were then boiled for 3 min. The phosphorylated GST-c-Jun was then separated on 12% SDS-PAGE. Following the separation, the gel was dried, and an autoradiogram was developed which is reproduced in FIG. 1.

Where [6] appears, read: Homo sapiens, NCI-H157, 96 h continuous treatment.

T1 sequence (P45983 whole entry): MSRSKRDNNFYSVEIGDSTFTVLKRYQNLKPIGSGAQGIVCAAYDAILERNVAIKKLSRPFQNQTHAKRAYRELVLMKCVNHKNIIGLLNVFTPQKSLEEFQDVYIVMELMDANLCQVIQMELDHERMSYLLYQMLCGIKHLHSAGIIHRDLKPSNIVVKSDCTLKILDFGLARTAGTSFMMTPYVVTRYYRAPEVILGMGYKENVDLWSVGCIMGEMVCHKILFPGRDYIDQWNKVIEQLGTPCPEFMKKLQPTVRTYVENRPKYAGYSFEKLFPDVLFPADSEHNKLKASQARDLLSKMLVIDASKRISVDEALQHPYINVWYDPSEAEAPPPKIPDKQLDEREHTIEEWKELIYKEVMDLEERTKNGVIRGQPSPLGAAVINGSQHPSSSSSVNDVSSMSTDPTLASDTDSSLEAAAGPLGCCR

By GI50 is commonly meant the concentration at which growth is held to half of that of the control. On to `CCOc1cccc2cc(S(=O)(=O)Nc3ccc(F)c(N)c3)c(=O)oc12` [Example 5, N-(3-Amino-4-fluorophenyl)-8-ethoxy-2-oxo-2H-chromene-3-sulfonamide], for which the GI50 was found to be 54 µM in experiment [1] (Homo sapiens, BT-20, 96 h); 72 µM in experiment [2] (setting [6]); 48 µM in experiment [3] (Homo sapiens, DU-145, 96 h); 80 µM in experiment [4] (Homo sapiens, DLD-1, 96 h); 42 µM in experiment [5] (Homo sapiens, K562, 96 h).

Take `COc1ccc(NS(=O)(=O)c2cc3cc(Cl)ccc3oc2=O)cc1O` [Example 4, 6-Chloro-N-(3-hydroxy-4-methoxyphenyl)-2-oxo-2H-chromene-3-sulfonamide]: the GI50 was 65 µM in experiment [1] (Homo sapiens, BT-20, 96 h); 76 µM in experiment [2] (setting [6]); 42 µM in experiment [3] (Homo sapiens, DU-145, 96 h); 82 µM in experiment [4] (Homo sapiens, DLD-1, 96 h); 51 µM in experiment [5] (Homo sapiens, K562, 96 h).

As to `CCOc1cccc2cc(S(=O)(=O)Nc3ccc(OC)cc3)c(=O)oc12` [Example 3, 8-Ethoxy-N-(4-methoxyphenyl)-2-oxo-2H-chromene-3-sulfonamide], the GI50 in experiment [1] was 52 µM; in experiment [2] (96 h continuous treatment) it was 74 µM; in experiment [3], 57 µM; in experiment [4], 78 µM; in experiment [5], 48 µM.

As for `COc1ccc(NS(=O)(=O)c2cc3cc(Br)ccc3oc2=O)cc1` [Example 1, 6-Bromo-N-(4-methoxyphenyl)-2-oxo-2H-chromene-3-sulfonamide], the GI50 in experiment [1] (Homo sapiens, BT-20, 96 h) was 16 µM; in experiment [2] (setting [6]), 18 µM; in experiment [3] (Homo sapiens, DU-145, 96 h), 15 µM; in experiment [4] (Homo sapiens, DLD-1, 96 h) it was 20 µM; in experiment [5] (Homo sapiens, K562, 96 h), 14 µM. For the same compound, the “c-Jun kinase activity: phosphorylation of GST-c-Jun by immunoprecipitated JNK1 (autoradiogram, FIG. 1)” value (from here on “c-Jun kinase activity: phosphorylation”) at JNK1 was “hyperphosphorylated”.

Turning to `COc1ccc(NS(=O)(=O)c2cc3cc(Cl)ccc3oc2=O)cc1` [Example 2, 6-Chloro-N-(4-methoxyphenyl)-2-oxo-2H-chromene-3-sulfonamide], the GI50 in experiment [1] (Homo sapiens, BT-20, 96 h) turned out to be 27 µM; in experiment [2] (setting [6]), 28 µM; in experiment [3] (Homo sapiens, DU-145, 96 h), 22 µM; in experiment [4] (Homo sapiens, DLD-1, 96 h), 32 µM; in experiment [5] (Homo sapiens, K562, 96 h), 23 µM. For the same compound, the “c-Jun kinase activity: phosphorylation” value on JNK1 is on record as “hyperphosphorylated”.

With `COc1ccc2oc(=O)c(S(=O)(=O)Nc3ccc(F)c(N)c3)cc2c1` [Example 6, N-(3-Amino-4-fluorophenyl)-6-methoxy-2-oxo-2H-chromene-3-sulfonamide], the GI50 in experiment [1] (Homo sapiens, BT-20, 96 h) worked out at 68 µM; in experiment [2] (setting [6]), 78 µM; in experiment [3] (Homo sapiens, DU-145, 96 h), 56 µM; in experiment [4] (Homo sapiens, DLD-1, 96 h), 92 µM; in experiment [5] (Homo sapiens, K562, 96 h), 44 µM.

On to `CCOc1cccc2cc(S(=O)(=O)Nc3ccc(OC)cc3)c(=O)oc12` [Example 8, 8-Ethoxy-N-(4-methoxyphenyl)-2-oxo-2H-chromene-3-sulfonamide], for which the GI50 was determined as 64 µM in experiment [1] (Homo sapiens, BT-20, 96 h); 74 µM in experiment [2] (setting [6]); 52 µM in experiment [3] (Homo sapiens, DU-145, 96 h); 85 µM in experiment [4] (Homo sapiens, DLD-1, 96 h); 58 µM in experiment [5] (Homo sapiens, K562, 96 h). Further, the “c-Jun kinase activity: phosphorylation” value on JNK1 is given as “hyperphosphorylated”.

As for `O=c1oc2c(Br)cccc2cc1S(=O)(=O)Nc1ccc(Br)cc1` [Example 10, N-(4-Bromophenyl)-8-bromo-2-oxo-2H-chromene-3-sulfonamide], the GI50 was 12 µM in experiment [1] (Homo sapiens, BT-20, 96 h); 15 µM in experiment [2] (setting [6]); 12 µM in experiment [3] (Homo sapiens, DU-145, 96 h); 14 µM in experiment [4] (Homo sapiens, DLD-1, 96 h); 16 µM in experiment [5] (Homo sapiens, K562, 96 h).

Turning to `COc1ccc2oc(=O)c(S(=O)(=O)Nc3ccc(Br)cc3)cc2c1` [Example 7, N-(4-Bromophenyl)-6-methoxy-2-oxo-2H-chromene-3-sulfonamide], the GI50 was 18 µM in experiment [1] (Homo sapiens, BT-20, 96 h); 32 µM in experiment [2] (setting [6]); 25 µM in experiment [3] (Homo sapiens, DU-145, 96 h); 38 µM in experiment [4] (Homo sapiens, DLD-1, 96 h); 27 µM in experiment [5] (Homo sapiens, K562, 96 h). The “c-Jun kinase activity: phosphorylation” value at JNK1 is “hyperphosphorylated”.

Consider `O=c1oc2c(Cl)cccc2cc1S(=O)(=O)Nc1ccc(Br)cc1` [Example 9, N-(4-Bromophenyl)-8-chloro-2-oxo-2H-chromene-3-sulfonamide], for which the GI50 in experiment [1] (Homo sapiens, BT-20, 96 h) stood at 17 µM; in experiment [2] (setting [6]), 16 µM; in experiment [3] (Homo sapiens, DU-145, 96 h), 14 µM; in experiment [4] (Homo sapiens, DLD-1, 96 h) it was 18 µM; in experiment [5] (Homo sapiens, K562, 96 h), 11 µM. Moreover, the “c-Jun kinase activity: phosphorylation” value on JNK1 is given as “hyperphosphorylated”.

(Values after US8143428B2, “Heteroaryl sulfones and sulfonamides and therapeutic uses thereof” (Temple University-Of The Commonwealth System of Higher …, priority 2004, dated 2012).)
